# The source made the active and inactive calls.
# Tests used:
# [1] = biological target: Induced myeloid leukemia cell differentiation protein Mcl-1 (Homo sapiens, UniProt Q07820); type: functional
# [2] = biological target: Heat shock protein HSP 90-alpha (Homo sapiens, UniProt P07900); type: functional, organism-based
# [3] = HEK-293T viability loss after treatment – luminescence, T-cell screen hits, cytotoxicity control for TCR NF-kB inhibitor project, dose response (AID 489026); type: functional, cell-based;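 further: cells exposed to compound about 14 hours before the viability readout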
# cells [4] = test: cells
# [5] = viability of uninfected HEp-2 cells – cell-based, HTS, cytotoxicity control for RSV inhibitor project, dose response (AID 2410); type: functional; conditions: human respiratory syncytial virus
# [6] = biological target: T1, Mannose-6-phosphate isomerase (Homo sapiens, UniProt P34949); test: MPI inhibition at elevated mannose 6-phosphate – biochemical, fluorescence intensity, high mannose 6-phosphate, primary screen (AID 1220)
# T1 sequence (P34949 whole entry): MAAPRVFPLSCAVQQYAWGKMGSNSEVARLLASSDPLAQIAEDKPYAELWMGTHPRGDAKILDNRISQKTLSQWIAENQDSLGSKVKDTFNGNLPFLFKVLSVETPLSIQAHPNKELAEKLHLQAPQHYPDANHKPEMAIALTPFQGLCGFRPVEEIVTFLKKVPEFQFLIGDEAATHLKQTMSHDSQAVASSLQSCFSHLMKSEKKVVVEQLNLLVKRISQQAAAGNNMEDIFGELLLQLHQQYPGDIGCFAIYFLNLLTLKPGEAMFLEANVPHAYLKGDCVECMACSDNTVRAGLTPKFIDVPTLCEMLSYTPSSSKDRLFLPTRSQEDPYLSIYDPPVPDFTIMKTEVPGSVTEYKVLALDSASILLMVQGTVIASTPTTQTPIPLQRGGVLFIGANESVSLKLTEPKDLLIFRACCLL
# [7] = biological target: T2, Microphthalmia-associated transcription factor (Homo sapiens, UniProt O75030); test: reducers of TRPM1 reporter luminescence, concentration series – cell-based, SK-MEL-5, cherry-picked, set 3, MITF inhibitor project, dose response (AID 493073); type: functional;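 further: SK-MEL-5 melanoma cells with luciferase driven by the MITF target TRPM1 promoter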
# T2 sequence (O75030 whole entry): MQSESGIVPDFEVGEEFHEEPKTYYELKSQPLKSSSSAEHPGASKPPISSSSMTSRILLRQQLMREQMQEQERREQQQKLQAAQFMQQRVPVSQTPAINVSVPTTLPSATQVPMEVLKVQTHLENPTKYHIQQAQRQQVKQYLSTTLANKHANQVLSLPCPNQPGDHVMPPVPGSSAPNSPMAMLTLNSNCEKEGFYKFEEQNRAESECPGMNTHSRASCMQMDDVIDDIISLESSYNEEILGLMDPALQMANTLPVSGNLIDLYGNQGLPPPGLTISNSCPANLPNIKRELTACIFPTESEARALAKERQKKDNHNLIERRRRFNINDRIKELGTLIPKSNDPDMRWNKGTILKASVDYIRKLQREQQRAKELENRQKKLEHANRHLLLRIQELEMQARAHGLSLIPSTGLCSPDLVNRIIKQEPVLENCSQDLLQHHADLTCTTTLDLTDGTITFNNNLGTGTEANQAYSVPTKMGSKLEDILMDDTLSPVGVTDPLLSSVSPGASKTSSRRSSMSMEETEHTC
# [8] = viability of PTEN-deleted HCT116 cells – cell-based, HCT116 PTEN knockout, dose response (AID 1047); type: functional;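 further: HCT116 colon tumor cells with PTEN knocked out; cells exposed to compound for 60 hours before readout; potency for loss of cell viability measured by luminescence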
# Large T antigen = Large T antigen (Simian virus 40, UniProt P03070); type: functional, Betapolyomavirus macacae;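 further: Confirmatory-stage PubChem screen for compounds that inhibit SV40 T antigen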
# [9] = viability of HCT116 lacking mutant beta-catenin – cell-based, human colon tumor, dose response (AID 1045); type: functional;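 further: HCT116 colon tumor cells with beta catenin knocked out; cells exposed to compound for 60 hours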
# [10] = Luminescence Cell-Based Dose Confirmation HTS to Identify Inhibitors of Platelet Dense Granule Release. [Related pubchem assays: 1663 (Primary HTS), 1678 (Summary of Project)]; type: functional
# [11] = biological target: Luciferin 4-monooxygenase (Photinus pyralis, UniProt P08659); test: inhibition of purified Photinus pyralis luciferase – biochemical, luminescence, dose response (AID 1891)
# [12] = microbe, parasite or virus in culture; type: functional; conditions: Mycobacterium tuberculosis
# [13] = NIH3T3 cell viability loss – ATP luminescence, mouse fibroblasts, counter-screen, dose response (AID 2010); type: functional, cell-based;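 further: cells exposed to compound for about 90 hours before reading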
# [14] = Trypanosoma cruzi growth suppression in host cells – NIH3T3 host cells, beta-gal luminescence, confirmation (AID 2044); type: functional, cell-based;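 further: intracellular parasites grown in NIH/3T3 mouse fibroblasts as host cells; luminescent beta-galactosidase reporter signal from transgenic T. cruzi replicating inside host cells; inhibitors lower the luminescence signal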
# Vero = test: cells; type: functional; conditions: Chlorocebus sabaeus
# cells [15] = type: functional
# [16] = Vero E6 cell cytotoxicity, dose response, cytotoxicity control for non-replicating M. tuberculosis project, secondary assay (AID 492998); type: functional, VeroE6; conditions: Vero C1008
# [17] = THP-1 cell cytotoxicity, dose response, cytotoxicity control for non-replicating M. tuberculosis project (AID 489025); type: functional
# [18] = NIH-3T3 fibroblast cytotoxicity, dose response, cytotoxicity control, cell-based, fluorescence, Alamar Blue, secondary assay (AID 2327); type: functional;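 further: NIH-3T3 mouse fibroblasts cultured with fluconazole at 8 µg/mL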
# Genome polyprotein = Genome polyprotein (dengue virus type 2, UniProt P29990); test: flavivirus cap methylation enzyme inhibition – biochemical, confirmation dose response, primary screen (AID 588689); type: functional
# [19] = fluconazole-exposed Candida albicans growth modulators – fluorescence, retest, confirmation (AID 2467); type: functional, cell-based
# INS1 = test: INS-1E survival protection against cytokine death – cell-based, luminescence, retest, dose response (AID 449756); type: functional; conditions: Rattus norvegicus;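 further: cell death triggered by IL-1 beta plus TNF-alpha plus IFN-gamma mixture; protective hits raise ATP signal compared with cytokine alone wells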
# [20] = growth inhibition of PfATP4-mutant resistant parasites – NITD609-resistant line, SYBR Green, dry powder, dose response (AID 1159571); type: functional, cell-based;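 further: parasites synchronized at ring stage by sorbitol before testing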
# [21] = growth inhibition of yeast DHODH-expressing 3D7 parasites – SYBR Green, dry powder samples, dose response (AID 1159570); type: functional, cell-based;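 further: parasite growth measured after 72 hours of compound exposure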
# [22] = Dd2 malaria parasite growth inhibition potency – SYBR Green, dry powder samples, dose response (AID 1159566); type: functional, cell-based;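 further: potency for growth inhibition with lower SYBR green DNA signal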
# [23] = P. falciparum Dd2 growth inhibitors, dose response, SYBR Green, cherry-picked samples (AID 1159567); type: functional, cell-based
# [24] = biological target: T3, High affinity choline transporter 1 (Homo sapiens, UniProt Q9GZV3); test: human choline transporter blockers, potency – cell-based, 5-point CRC, membrane potential dye, dose response (AID 504840); type: functional
# T3 sequence (Q9GZV3 whole entry): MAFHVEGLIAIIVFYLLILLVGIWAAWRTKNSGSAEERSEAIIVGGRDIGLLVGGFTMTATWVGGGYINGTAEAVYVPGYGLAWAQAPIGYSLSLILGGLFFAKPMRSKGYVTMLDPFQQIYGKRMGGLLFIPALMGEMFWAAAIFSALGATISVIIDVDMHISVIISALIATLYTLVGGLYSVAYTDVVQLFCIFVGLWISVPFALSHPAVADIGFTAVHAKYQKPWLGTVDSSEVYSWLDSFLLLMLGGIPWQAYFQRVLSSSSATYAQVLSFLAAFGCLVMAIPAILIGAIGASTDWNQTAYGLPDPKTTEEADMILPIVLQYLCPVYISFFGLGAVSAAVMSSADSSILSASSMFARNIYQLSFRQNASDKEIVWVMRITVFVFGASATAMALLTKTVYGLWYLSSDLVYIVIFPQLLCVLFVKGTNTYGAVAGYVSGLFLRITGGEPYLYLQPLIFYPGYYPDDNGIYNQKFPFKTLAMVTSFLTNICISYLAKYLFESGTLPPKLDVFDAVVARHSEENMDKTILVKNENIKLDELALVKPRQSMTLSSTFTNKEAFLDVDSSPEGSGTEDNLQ
# [25] = biological target: T4, Polyadenylate-binding protein 1 (Homo sapiens, UniProt P11940); test: MLLE domain peptide-binding blockers, IC50 – biochemical, fluorescence polarization, FITC-PAM2 peptide, dose response (AID 602259); type: functional; conditions: read-out: IC50_Mean
# [26] = biological target: T4, Polyadenylate-binding protein 1; test: MLLE binding blockers, Cy5 peptide tracer – biochemical, fluorescence polarization, Cy5-PAM2 peptide, secondary, miRNA deadenylation inhibitor project, dose response (AID 602260); type: functional; conditions: read-out: IC50_Mean
# Chain of Induced myeloid leukemia cell differentiation protein Mcl-1 (Q07820 whole entry): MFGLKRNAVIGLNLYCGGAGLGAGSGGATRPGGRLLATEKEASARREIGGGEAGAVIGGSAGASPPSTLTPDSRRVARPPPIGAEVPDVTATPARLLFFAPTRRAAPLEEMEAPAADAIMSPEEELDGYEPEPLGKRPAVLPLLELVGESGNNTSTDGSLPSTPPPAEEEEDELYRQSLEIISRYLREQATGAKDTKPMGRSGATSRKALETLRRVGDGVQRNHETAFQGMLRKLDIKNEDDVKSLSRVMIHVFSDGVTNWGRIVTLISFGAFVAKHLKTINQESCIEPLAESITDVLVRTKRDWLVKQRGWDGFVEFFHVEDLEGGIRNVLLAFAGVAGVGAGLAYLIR
# T4 sequence (P11940 whole entry, the tested form may be a part): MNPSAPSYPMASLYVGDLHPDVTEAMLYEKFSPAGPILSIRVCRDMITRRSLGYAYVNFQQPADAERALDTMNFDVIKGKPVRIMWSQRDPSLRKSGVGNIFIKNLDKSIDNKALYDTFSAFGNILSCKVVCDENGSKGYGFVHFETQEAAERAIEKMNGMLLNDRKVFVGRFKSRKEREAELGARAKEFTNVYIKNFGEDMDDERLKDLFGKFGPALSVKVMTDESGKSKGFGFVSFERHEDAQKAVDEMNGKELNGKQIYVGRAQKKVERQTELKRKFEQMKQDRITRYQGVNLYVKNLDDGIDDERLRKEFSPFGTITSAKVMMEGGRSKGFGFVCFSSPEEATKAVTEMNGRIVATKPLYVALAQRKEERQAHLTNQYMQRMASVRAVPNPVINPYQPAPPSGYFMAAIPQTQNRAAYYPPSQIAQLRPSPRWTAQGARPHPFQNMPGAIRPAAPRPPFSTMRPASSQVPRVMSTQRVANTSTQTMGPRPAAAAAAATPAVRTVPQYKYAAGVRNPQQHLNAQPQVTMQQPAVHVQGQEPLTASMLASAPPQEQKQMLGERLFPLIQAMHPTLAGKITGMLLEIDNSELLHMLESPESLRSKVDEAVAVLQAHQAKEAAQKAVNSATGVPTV
# Chain of Genome polyprotein (P29990 2492-3391 limits assumed): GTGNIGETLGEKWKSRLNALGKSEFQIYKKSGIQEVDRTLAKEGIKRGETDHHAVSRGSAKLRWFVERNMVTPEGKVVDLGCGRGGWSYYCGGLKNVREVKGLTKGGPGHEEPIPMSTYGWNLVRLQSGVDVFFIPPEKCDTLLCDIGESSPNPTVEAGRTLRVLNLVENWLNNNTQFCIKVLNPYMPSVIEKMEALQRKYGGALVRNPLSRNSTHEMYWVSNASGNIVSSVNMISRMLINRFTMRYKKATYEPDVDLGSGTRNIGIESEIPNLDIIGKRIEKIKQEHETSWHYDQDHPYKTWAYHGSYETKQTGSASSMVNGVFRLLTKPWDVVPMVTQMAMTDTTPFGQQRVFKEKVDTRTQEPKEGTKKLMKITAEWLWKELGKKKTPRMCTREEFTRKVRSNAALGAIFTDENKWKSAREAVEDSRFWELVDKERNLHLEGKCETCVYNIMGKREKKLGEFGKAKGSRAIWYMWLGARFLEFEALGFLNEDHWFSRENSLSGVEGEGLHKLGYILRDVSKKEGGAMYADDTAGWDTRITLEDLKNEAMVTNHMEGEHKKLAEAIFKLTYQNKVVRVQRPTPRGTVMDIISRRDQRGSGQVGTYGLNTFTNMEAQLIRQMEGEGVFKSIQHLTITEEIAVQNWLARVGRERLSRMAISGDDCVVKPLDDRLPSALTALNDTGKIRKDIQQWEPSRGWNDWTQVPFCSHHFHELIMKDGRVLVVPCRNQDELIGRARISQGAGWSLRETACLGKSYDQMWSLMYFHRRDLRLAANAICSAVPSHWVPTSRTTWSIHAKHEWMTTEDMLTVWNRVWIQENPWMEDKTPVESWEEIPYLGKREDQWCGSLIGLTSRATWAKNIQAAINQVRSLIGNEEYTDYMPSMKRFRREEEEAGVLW
# Chain of Luciferin 4-monooxygenase (P08659 whole entry): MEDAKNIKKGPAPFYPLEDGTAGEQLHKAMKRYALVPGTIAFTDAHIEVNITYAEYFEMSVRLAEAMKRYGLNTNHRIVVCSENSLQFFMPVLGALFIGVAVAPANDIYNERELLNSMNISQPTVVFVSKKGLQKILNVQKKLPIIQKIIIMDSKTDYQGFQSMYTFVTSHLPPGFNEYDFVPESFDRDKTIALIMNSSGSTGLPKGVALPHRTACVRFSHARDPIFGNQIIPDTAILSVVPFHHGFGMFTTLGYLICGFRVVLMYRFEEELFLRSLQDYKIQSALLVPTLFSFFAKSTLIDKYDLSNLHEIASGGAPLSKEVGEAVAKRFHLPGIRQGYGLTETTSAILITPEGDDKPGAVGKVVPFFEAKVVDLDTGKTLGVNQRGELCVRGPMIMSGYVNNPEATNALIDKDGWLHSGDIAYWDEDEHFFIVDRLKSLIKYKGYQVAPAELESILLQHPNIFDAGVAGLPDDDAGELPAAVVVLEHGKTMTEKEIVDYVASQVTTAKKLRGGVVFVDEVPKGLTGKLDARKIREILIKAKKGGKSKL
# Chain of Large T antigen (P03070 whole entry): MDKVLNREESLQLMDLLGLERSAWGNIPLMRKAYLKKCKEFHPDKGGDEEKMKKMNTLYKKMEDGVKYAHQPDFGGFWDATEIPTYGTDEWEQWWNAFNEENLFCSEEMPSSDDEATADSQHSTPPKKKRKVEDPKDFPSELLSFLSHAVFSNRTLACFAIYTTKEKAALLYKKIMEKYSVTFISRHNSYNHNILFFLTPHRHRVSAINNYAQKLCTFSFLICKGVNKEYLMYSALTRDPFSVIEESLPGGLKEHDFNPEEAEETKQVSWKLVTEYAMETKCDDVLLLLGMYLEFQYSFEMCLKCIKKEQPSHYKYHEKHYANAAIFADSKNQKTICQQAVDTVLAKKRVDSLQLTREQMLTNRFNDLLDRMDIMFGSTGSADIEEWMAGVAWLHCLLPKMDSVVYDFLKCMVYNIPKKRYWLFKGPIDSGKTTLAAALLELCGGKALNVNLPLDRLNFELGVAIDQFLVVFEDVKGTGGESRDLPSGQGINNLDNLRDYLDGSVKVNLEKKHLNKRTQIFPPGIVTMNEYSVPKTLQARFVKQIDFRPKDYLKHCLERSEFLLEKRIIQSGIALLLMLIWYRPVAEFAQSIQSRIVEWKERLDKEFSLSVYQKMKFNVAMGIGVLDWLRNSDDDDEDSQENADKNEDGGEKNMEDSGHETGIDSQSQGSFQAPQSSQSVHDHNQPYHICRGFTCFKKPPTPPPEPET
smiles,measurement,setting,value
Cc1c(NS(=O)(=O)c2cc(NC(=O)CCN3CCCC(C)C3)ccc2Cl)c(=O)n(-c2ccccc2)n1C (stereo unspecified),IC50,[1],4.67 µM (not active)
C[C@@]12C(=O)Nc3ccc(Cl)cc3C(=O)N1[C@H]1c3ccccc3OC[C@@H]1[C@@H]2c1ccccc1,AC50,[2],0.611 µM (active)
COc1ccc(C(=O)N(C)Cc2cnn(Cc3ccccc3)c2)cc1S(=O)(=O)N1CCOCC1,IC50,[3],> 80 µM (inactive)
CCCOc1ccc(N2C(=O)CC(N3CCC(C(=O)OCC)CC3)C2=O)cc1 (stereo unspecified),AC50,[2],3.1 µM (active)
Cc1ccc2c(c1)COc1c3ccc(C(=O)N[C@@H](C)CO)cc3nn1-2,IC50,cells [4],41.5 µM (active)
same,CC50,[5],> 50 µM (active)
CCN(CC)C1=N/C(=C\c2ccc(OC)cc2)C(=O)N1c1ccccc1,IC50,cells [4],4.49 µM (active)
same,CC50,[5],9.86 µM (active)
Cc1ccc(NC(=S)Nc2cccc3cnccc23)cc1,IC50,[6],> 50 µM (not active)
COc1ccc(N(C)C(=S)Nc2ccc3nc(C)c(C)nc3c2)cc1,IC50,[6],> 50 µM (not active)
c1ccc(Cn2nnc3c(N4CCCCCC4)ncnc32)cc1,IC50,cells [4],49.5 µM (active)
same,CC50,[5],17 µM (active)
COc1cc(/C=C/c2nc3ccccc3c(=O)n2-c2cccc(O)c2)ccc1O,IC50,[1],8.49 µM (active)
COc1ccccc1C(=O)NNC(=S)NC(=O)c1ccco1,AC50,[2],1.42 µM (active)
C=CCN1C(=O)/C(=C/c2cc(C)n(-c3cccnc3)c2C)C(=O)NC1=S,AC50,[7],16.8 µM (active)
same,EC50,[8],89.5 µM (active)
same,IC50,Large T antigen,66.7 µM (active)
same,EC50,[9],53.3 µM (active)
same,IC50,[6],> 50 µM (not active)
COc1cc2c(cc1OC)C1=C(C#N)CN(CC(=O)O)CN1CC2,EC50,[10],> 112 µM (not active)
same,EC50,[11],> 112 µM (not active)
same,IC50,[6],34.1 µM (active)
Nc1ccc(-c2nc3cc(-c4nc5ccccc5o4)ccc3[nH]2)cc1,IC50,cells [4],33.4 µM (active)
same,CC50,[5],48.2 µM (active)
same,CC50,[12],> 40 µM (active)
Cc1cccc(-c2csc(N)c2C(=O)OC(C)C)c1,IC50,[6],> 50 µM (not active)
Cn1c2ccccc2c(=O)c2c(=O)n(Cc3ccco3)c(-c3ccc(Cl)cc3Cl)nc21,EC50,[13],> 30 µM (not active)
same,IC50,cells [4],10.2 µM (active)
same,CC50,[5],15.5 µM (active)
same,EC50,[14],978 nM (active)
CCOC(=O)CN1C(=O)N[C@@H](c2cccc(F)c2)C(C(C)=O)=C1C,IC50,cells [4],12.8 µM (active)
same,CC50,[5],44.1 µM (active)
O=C(Nc1ccccn1)c1ccc([N+](=O)[O-])o1,CC50,Vero,> 25 µM (active)
same,IC50,cells [15],13.6 µM (active)
same,CC50,[16],13.4 µM (active)
same,CC50,[17],26.3 µM (active)
O=C(N/N=C/c1ccc(O)c(O)c1)/C(O)=C\C1=NC2(CCCC2)Cc2ccccc21,IC50,[1],3.56 µM (active)
O=C1CCC/C(=N/Nc2ccc(Cl)cc2)C1,EC50,[18],> 150 µM (inactive)
same,IC50,cells [15],16.9 µM (active)
same,IC50,Genome polyprotein,93.3 µM (active)
same,CC50,[17],> 40 µM (active)
O=C(N/N=C\c1ccc([N+](=O)[O-])s1)c1cncc(Br)c1,AC50,[7],4.34 µM (active)
same,EC50,[19],4.15 µM (active)
same,EC50,[18],29.4 µM (active)
same,IC50,cells [15],12.6 µM (active)
same,AC50,INS1,7.04 µM (active)
same,EC50,[8],1.09 µM (active)
same,CC50,[16],4.83 µM (active)
same,EC50,[9],0.452 µM (active)
same,CC50,[17],5.8 µM (active)
CC1(C)CC(=O)C(=CNc2cccc(/N=C/C3=C(O)CC(C)(C)CC3=O)n2)C(=O)C1,IC50,[1],1.31 µM (not active)
CC(/C=N\Nc1n[nH]c2c3cccc(C)c3nc-2n1)=C\c1ccco1,IC50,[1],3.46 µM (active)
C[C@@H]1CN([C@@H](C)CO)C(=O)c2cccc(NC(=O)c3nc4ccccc4s3)c2O[C@H]1CN(C)C(=O)Nc1cccc2ccccc12,AC50,[20],802 nM (active)
same,AC50,[21],595 nM (active)
same,AC50,[22],766 nM (active)
COc1ccc(-c2ccc([C@H]3[C@H](C#N)N(C(=O)c4cccc(F)c4)[C@H]3CO)cc2)cc1,AC50,[23],2.71 µM (active)
same,AC50,[20],2000 nM (active)
same,AC50,[21],2240 nM (active)
same,AC50,[22],1850 nM (active)
Cc1ccc(C(=O)/C=C/C(=O)O)cc1,IC50,[24],10.5 µM (active)
same,IC50,[25],> 66 µM (inactive)
same,IC50,Genome polyprotein,> 100 µM (active)
same,IC50,[26],> 66 µM (inactive)
NC(=O)COc1ccc2c3c(c(=O)oc2c1)CCCCC3,EC50,[19],> 38 µM (not active)
same,EC50,[18],> 160 µM (inconclusive)
same,IC50,cells [4],42.2 µM (active)

# Source: ChEMBL document CHEMBL1201862, “PubChem BioAssay data set” (2004)
